The source of these data is US10968217B2, “Tetrahydropyridopyrimidines for the treatment and prophylaxis of hepatitis B virus infection” (Hoffmann-La Roche Inc., priority 2016, dated 2021).

For this assay, the system named is HBsAg. The assay can be described thus: HBsAg assay (CLIA of secreted HBsAg in HepG2.2.15 culture supernatant). In kind it is cell-based, HBV. Conditions: Hepatitis B virus, HepG2.2.15, read-out: IC50 (HBsAg assay). As for the experimental part: HepG2.2.15 cells (Acs et al. Proc Natl Acad Sci USA, 84, (1987), 4641-4), a constitutively HBV-expressing cell line were cultured in DMEM+Glutamax-I medium (Invitrogen, Carlsbad, Calif., USA), supplemented with 10% fetal bovine serum (Invitrogen) and G418 (Invitrogen) at a final concentration of 200 mg/L and maintained in 5% CO2 at 37° C.
HepG2.2.15 cells were seeded in duplicate into white, 96-well plates at 1.5×10^4 cells/well. The cells were treated with a three-fold serial dilution series of the compounds in DMSO. The final DMSO concentration in all wells was 1% and DMSO was used as no drug control.
The HBsAg chemiluminescence immunoassay (CLIA) kit (Autobio Diagnostics Co., Zhengzhou, China, Catalog number: CL0310-2) was used to measure the levels of secreted HBV antigens semi-quantitatively. For the detection 50 μL/well culture supernatant was used and HBsAg was quantified using HBsAg chemiluminescence immunoassay (CLIA) kit (Autobio Diagnostics Co., Zhengzhou, China, Catalog number: CL0310-2), 50 μL of the supernatant was transferred to the CLIA assay plate and 50 μL of enzyme conjugate reagent was added into each well. The plates were sealed and gently agitated for 1 hour at room temperature. The supernatant-enzyme-mixture was discarded and wells were washed 6 times with 300 μL of PBS. The residual liquid was removed by plating the CLIA plate right side down on absorbent tissue paper. 25 μL of substrates A and B were added to each well. Luminance was measured using a luminometer (Mithras LB 940 Multimode Microplate Reader) after 10 minutes incubation. Dose-response curves were generated and the IC50 value was extrapolated by using the E-WorkBook Suite (ID Business Solutions Ltd., Guildford, UK). The IC50 was defined as the compound concentration at which HBsAg secretion was reduced by 50% compared to the no drug control.
As usually defined, the IC50 is the concentration that gives 50% inhibition. For the compound `COc1ccc(C(=O)N2CCc3nc(-c4ccccn4)ncc3C2)nc1` [Example 29, (5-Methoxy-2-pyridyl)-[2-(2-pyridyl)-7,8-dihydro-5H-pyrido[4,3-d]pyrimidin-6-yl]methanone], the IC50 stood at 34200 nM.
Consider `COc1c(F)cc(C(=O)N2CCc3nc(-c4ccccn4)ncc3C2)cc1F` [Example 30, (3,5-Difluoro-4-methoxy-phenyl)-[2-(2-pyridyl)-7,8-dihydro-5H-pyrido[4,3-d]pyrimidin-6-yl]methanone], for which the concentration for half-maximal inhibition (IC50) stood at 25200 nM.
Under `Cc1ccc(C(=O)N2CCc3nc(-c4ccccn4)ncc3C2)cn1` [Example 31, (6-Methyl-3-pyridyl)-[2-(2-pyridyl)-7,8-dihydro-5H-pyrido[4,3-d]pyrimidin-6-yl]methanone] stands 31900 nM; under `Cc1csc(C(=O)N2CCc3nc(-c4ccccn4)ncc3C2)c1` [Example 32, (4-Methyl-2-thienyl)-[2-(2-pyridyl)-7,8-dihydro-5H-pyrido[4,3-d]pyrimidin-6-yl]methanone], 1670 nM; under `Cc1cc(C(=O)N2CCc3nc(-c4ccccn4)ncc3C2)no1` [Example 33, (5-Methylisoxazol-3-yl)-[2-(2-pyridyl)-7,8-dihydro-5H-pyrido[4,3-d]pyrimidin-6-yl]methanone], 8110 nM.
`COc1ccc(C(=O)N2CCc3nc(-c4ccccn4)ncc3C2)cn1` [Example 36, (6-Methoxy-3-pyridyl)-[2-(2-pyridyl)-7,8-dihydro-5H-pyrido[4,3-d]pyrimidin-6-yl]methanone]: the IC50 worked out at 3970 nM.
Under `O=C(c1cc(F)cc(F)c1)N1CCc2nc(-c3ccccn3)ncc2C1` [Example 37, (3,5-Difluorophenyl)-[2-(2-pyridyl)-7,8-dihydro-5H-pyrido[4,3-d]pyrimidin-6-yl]methanone] stands 25800 nM.
As to `COc1cc(F)cc(C(=O)N2CCc3nc(-c4ccccn4)ncc3C2)c1` [Example 38, (3-Fluoro-5-methoxy-phenyl)-[2-(2-pyridyl)-7,8-dihydro-5H-pyrido[4,3-d]pyrimidin-6-yl]methanone], the IC50 worked out at 21700 nM.
Under `COc1ccc(C(=O)N2CCc3nc(-c4ccccn4)ncc3C2)cc1` [Example 39, (4-Methoxyphenyl)-[2-(2-pyridyl)-7,8-dihydro-5H-pyrido[4,3-d]pyrimidin-6-yl]methanone] stands 10600 nM.
As for `COCCCOc1ccc(C(=O)N2CCc3nc(-c4ncccn4)ncc3C2C)cc1Cl` (stereo not drawn) [Example 40, [3-Chloro-4-(3-methoxypropoxy)phenyl]-(5-methyl-2-pyrimidin-2-yl-7,8-dihydro-5H-pyrido[4,3-d]pyrimidin-6-yl)methanone], the IC50 worked out at 1930 nM.
As for `Cc1csc(C(=O)N2CCc3nc(-c4ccccn4)ncc3C2C)c1` (stereo not drawn) [Example 41, [5-Methyl-2-(2-pyridyl)-7,8-dihydro-5H-pyrido[4,3-d]pyrimidin-6-yl]-(4-methyl-2-thienyl)methanone], the IC50 worked out at 380 nM.
`CC1c2cnc(-c3ccccn3)nc2CCN1C(=O)c1ccc(Cl)s1` (stereo not drawn) [Example 42, (5-Chloro-2-thienyl)-[5-methyl-2-(2-pyridyl)-7,8-dihydro-5H-pyrido[4,3-d]pyrimidin-6-yl]methanone]: the IC50 worked out at 258 nM.
`Cc1ccc(C(=O)N2CCc3nc(-c4ccccn4)ncc3C2C)s1` (stereo not drawn) [Example 43, [5-Methyl-2-(2-pyridyl)-7,8-dihydro-5H-pyrido[4,3-d]pyrimidin-6-yl]-(5-methyl-2-thienyl)methanone]: the half-maximal inhibitory concentration (IC50) amounted to 326 nM.
Under `CC1c2cnc(-c3ccccn3)nc2CCN1C(=O)c1ccsc1` (stereo not drawn) [Example 44, [5-Methyl-2-(2-pyridyl)-7,8-dihydro-5H-pyrido[4,3-d]pyrimidin-6-yl]-(3-thienyl)methanone] stands 2460 nM.
As for `Cc1ncoc1C(=O)N1CCc2nc(-c3ccccn3)ncc2C1C` (stereo not drawn) [Example 45, (4-Methyloxazol-5-yl)-[5-methyl-2-(2-pyridyl)-7,8-dihydro-5H-pyrido[4,3-d]pyrimidin-6-yl]methanone], the IC50 is 1430 nM.
Under `CC1c2cnc(-c3ccccn3)nc2CCN1C(=O)c1ccc2cc[nH]c2c1` (stereo not drawn) [Example 46, 1H-ndol-6-yl-[5-methyl-2-(2-pyridyl)-7,8-dihydro-5H-pyrido[4,3-d]pyrimidin-6-yl]methanone] stands 2080 nM.
As to `CC1c2cnc(-c3ccccn3)nc2CCN1C(=O)c1ccc2[nH]ncc2c1` (stereo not drawn) [Example 47, 1H-indazol-5-yl-[5-methyl-2-(2-pyridyl)-7,8-dihydro-5H-pyrido[4,3-d]pyrimidin-6-yl]methanone], the IC50 came out at 2470 nM.
Consider `CC1c2cnc(-c3ccccn3)nc2CCN1C(=O)c1cc2ccccc2s1` (stereo not drawn) [Example 48, Benzothiophen-2-yl-[5-methyl-2-(2-pyridyl)-7,8-dihydro-5H-pyrido[4,3-d]pyrimidin-6-yl]methanone], for which the IC50 worked out at 472 nM.
Under `CC1c2cnc(-c3ccccn3)nc2CCN1C(=O)c1cccs1` (stereo not drawn) [Example 49, [5-Methyl-2-(2-pyridyl)-7,8-dihydro-5H-pyrido[4,3-d]pyrimidin-6-yl]-(2-thienyl)methanone] stands 1110 nM; under `Cc1ccsc1C(=O)N1CCc2nc(-c3ccccn3)ncc2C1C` (stereo not drawn) [Example 50, [5-Methyl-2-(2-pyridyl)-7,8-dihydro-5H-pyrido[4,3-d]pyrimidin-6-yl]-(3-methyl-2-thienyl)methanone], 27700 nM; under `CC1c2cnc(-c3ccccn3)nc2CCN1C(=O)c1nccs1` (stereo not drawn) [Example 51, [5-Methyl-2-(2-pyridyl)-7,8-dihydro-5H-pyrido[4,3-d]pyrimidin-6-yl]-thiazol-2-yl-methanone], 627 nM.
In the case of `CC1c2cnc(-c3ccccn3)nc2CCN1C(=O)c1ccc(Br)s1` (stereo not drawn) [Example 53, (5-Bromo-2-thienyl)-[5-methyl-2-(2-pyridyl)-7,8-dihydro-5H-pyrido[4,3-d]pyrimidin-6-yl]methanone], the half-inhibitory concentration (IC50) stood at 510 nM.
For the compound `CC1c2cnc(-c3ccccn3)nc2CCN1C(=O)c1cncs1` (stereo not drawn) [Example 54, [5-Methyl-2-(2-pyridyl)-7,8-dihydro-5H-pyrido[4,3-d]pyrimidin-6-yl]-thiazol-5-yl-methanone], the IC50 was 11500 nM.
Turning to `Cc1cnc(C(=O)N2CCc3nc(-c4ccccn4)ncc3C2C)s1` (stereo not drawn) [Example 55, [5-Methyl-2-(2-pyridyl)-7,8-dihydro-5H-pyrido[4,3-d]pyrimidin-6-yl]-(5-methylthiazol-2-yl)methanone], the half-maximal inhibitory concentration (IC50) turned out to be 223 nM.
Take `CC1c2cnc(-c3ccccn3)nc2CCN1C(=O)c1ncc[nH]1` (stereo not drawn) [Example 56, 1H-Imidazol-2-yl-[5-methyl-2-(2-pyridyl)-7,8-dihydro-5H-pyrido[4,3-d]pyrimidin-6-yl]methanone]: the IC50 amounted to 1080 nM.
As to `CC1c2cnc(-c3ccccn3)nc2CCN1C(=O)c1nccn1C` (stereo not drawn) [Example 57, (1-Methylimidazol-2-yl)-[5-methyl-2-(2-pyridyl)-7,8-dihydro-5H-pyrido[4,3-d]pyrimidin-6-yl]methanone], the IC50 was 3230 nM.
Consider `CC1c2cnc(-c3ccccn3)nc2CCN1C(=O)c1ncco1` (stereo not drawn) [Example 60, [5-Methyl-2-(2-pyridyl)-7,8-dihydro-5H-pyrido[4,3-d]pyrimidin-6-yl]-oxazol-2-yl-methanone], for which the IC50 stood at 2610 nM.
Regarding `Cc1nc(C(=O)N2CCc3nc(-c4ccccn4)ncc3C2C)sc1C` (stereo not drawn) [Example 61, (4,5-Dimethylthiazol-2-yl)-[5-methyl-2-(2-pyridyl)-7,8-dihydro-5H-pyrido[4,3-d]pyrimidin-6-yl]methanone], the IC50 was found to be 82 nM.
Regarding `CC1c2cnc(-c3ncccn3)nc2CCN1C(=O)c1nn(C)c2ccccc12` (stereo not drawn) [Example 62, (1-Methylindazol-3-yl)-(5-methyl-2-pyrimidin-2-yl-7,8-dihydro-5H-pyrido[4,3-d]pyrimidin-6-yl)methanone], the IC50 was determined as 420 nM.
As to `CC1c2cnc(-c3ncccn3)nc2CCN1C(=O)c1n[nH]c2ccccc12` (stereo not drawn) [Example 63, 1H-indazol-3-yl-(5-methyl-2-pyrimidin-2-yl-7,8-dihydro-5H-pyrido[4,3-d]pyrimidin-6-yl)methanone], the IC50 stood at 450 nM.
Under `CC1c2cnc(-c3ncccn3)nc2CCN1C(=O)c1n[nH]c2ccc(F)cc12` (stereo not drawn) [Example 64, (5-Fluoro-1H-indazol-3-yl)-(5-methyl-2-pyrimidin-2-yl-7,8-dihydro-5H-pyrido[4,3-d]pyrimidin-6-yl)methanone] stands 210 nM.
Under `CC1c2cnc(-c3ncccn3)nc2CCN1C(=O)c1nn(Cc2ccccc2)c2ccccc12` (stereo not drawn) [Example 65, (1-Benzylindazol-3-yl)-(5-methyl-2-pyrimidin-2-yl-7,8-dihydro-5H-pyrido[4,3-d]pyrimidin-6-yl)methanone] stands 390 nM.
For the compound `COc1ccc2[nH]nc(C(=O)N3CCc4nc(-c5ncccn5)ncc4C3C)c2c1` (stereo not drawn) [Example 66, (5-Methoxy-1H-indazol-3-yl)-(5-methyl-2-pyrimidin-2-yl-7,8-dihydro-5H-pyrido[4,3-d]pyrimidin-6-yl)methanone], the IC50 was 1360 nM.
